Target: T1, human GPR40 (Homo sapiens, UniProt O14842)
T1 construct: expressed in transfected cells
Assay: Evaluation of human GPR40 agonist activity with increase in intracellular Ca2+ concentration as an index (FLIPR Tetra)
Type: cell-based
Conditions: test compound 1 μM; CHO(dhfr-) cells stably expressing human GPR40; 100% = activity of 1 μM WO2009/048527 Example 99.2, 0% = DMSO
Outline: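 CHO(dhfr-) cells stably expressing human GPR40, loaded with Calcium 5 dye in HEPES/HBSS buffer with 0.2% fatty acid-free BSA and probenecid, 1 h at 37° C. Test compound added at 1 μM final; fluorescence Ca2+ rise scaled to a reference agonist at 1 μM (100%) and DMSO (0%).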

T1 sequence (O14842 whole entry): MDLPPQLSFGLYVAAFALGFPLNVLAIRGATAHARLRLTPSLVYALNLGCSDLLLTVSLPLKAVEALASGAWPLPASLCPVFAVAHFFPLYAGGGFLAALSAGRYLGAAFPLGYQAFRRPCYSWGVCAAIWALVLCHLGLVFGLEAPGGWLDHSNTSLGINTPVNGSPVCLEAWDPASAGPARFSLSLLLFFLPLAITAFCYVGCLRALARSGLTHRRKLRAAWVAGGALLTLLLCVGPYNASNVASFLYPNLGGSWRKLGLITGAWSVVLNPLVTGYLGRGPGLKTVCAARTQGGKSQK

| activation at 1 µM [%] | Human GPR40 agonist activity (increase in intracellular Ca2+ concentration) [%] | Compound |
| --- | --- | --- |
| 96 | – | COc1ccc(F)c(-c2ccc(OCc3cccc(C(CC(=O)O)C4CC4)c3)cc2C(C)C(C)(C)C)c1 (stereo not drawn) [Example 98, 3-cyclopropyl-3-(3-(((2-(3,3-dimethylbutan-2-yl)-2′-fluoro-5′-methoxybiphenyl-4-yl)oxy)methyl)phenyl)propanoic acid] |
| 93 | – | COc1ccc(F)c(-c2ccc(OCc3cccc(C(CC(=O)O)C4CC4)c3)cc2CC2(C#N)CCCCC2)c1 (stereo not drawn) [Example 99, 3-(3-(((2-((1-cyanocyclohexyl)methyl)-2′-fluoro-5′-methoxybiphenyl-4-yl)oxy)methyl)phenyl)-3-cyclopropylpropanoic acid] |
| 105 | – | CCC1(Cc2cc(OCc3cccc(C(CC(=O)O)C4CC4)c3)ccc2-c2cc(OC)ccc2F)CCCC1 (stereo not drawn) [Example 100, 3-cyclopropyl-3-(3-(((2-((1-ethylcyclopentyl)methyl)-2′-fluoro-5′-methoxybiphenyl-4-yl)oxy)methyl)phenyl)propanoic acid] |
| 106 | – | COc1ccc(F)c(-c2ccc(OCc3cccc(C(CC(=O)O)C4CC4)c3)cc2C(F)C2(C#N)CCCC2)c1 (stereo not drawn) [Example 101, 3-(3-(((2-((1-cyanocyclopentyl)(fluoro)methyl)-2′-fluoro-5′-methoxybiphenyl-4-yl)oxy)methyl)phenyl)-3-cyclopropylpropanoic acid] |
| 100 | – | COc1ccc(F)c(-c2ccc(OCc3cccc(C(CC(=O)O)C4CC4)c3)cc2CC2(C#N)CCC2)c1 (stereo not drawn) [Example 102, 3-(3-(((2-((1-cyanocyclobutyl)methyl)-2′-fluoro-5′-methoxybiphenyl-4-yl)oxy)methyl)phenyl)-3-cyclopropylpropanoic acid] |
| 119 | – | COc1ccc(F)c(-c2ccc(OCc3cccc(C(CC(=O)O)C4CC4)c3)cc2CC2(C#N)CC2)c1 (stereo not drawn) [Example 103, 3-(3-(((2-((1-cyanocyclopropyl)methyl)-2′-fluoro-5′-methoxybiphenyl-4-yl)oxy)methyl)phenyl)-3-cyclopropylpropanoic acid] |
| 105 | – | COc1cc(-c2ccc(OCc3cccc(C(CC(=O)O)C4CC4)c3)cc2CC(C)(C)C)c(F)cn1 (stereo not drawn) [Example 104, 3-cyclopropyl-3-(3-((3-(2,2-dimethylpropyl)-4-(5-fluoro-2-methoxypyridin-4-yl)phenoxy)methyl)phenyl)propanoic acid] |
| 116 | – | CCCC(C)(C)Cc1cc(OCc2cccc(C(CC(=O)O)C3CC3)c2)ccc1-c1cc(OC)ccc1F (stereo not drawn) [Example 105, 3-cyclopropyl-3-(3-(((2-(2,2-dimethylpentyl)-2′-fluoro-5′-methoxybiphenyl-4-yl)oxy)methyl)phenyl)propanoic acid] |
| 96 | – | CCC(C)(C)Cc1cc(OCc2cccc(C(CC(=O)O)C3CC3)c2)ccc1-c1cc(OC)ccc1F (stereo not drawn) [Example 106, 3-cyclopropyl-3-(3-(((2-(2,2-dimethylbutyl)-2′-fluoro-5′-methoxybiphenyl-4-yl)oxy)methyl)phenyl)propanoic acid] |
| 126 | – | CCC(C)(C)C(F)c1cc(OCc2cccc(C(CC(=O)O)C3CC3)c2)ccc1-c1cc(OC)ccc1F (stereo not drawn) [Example 107, 3-cyclopropyl-3-(3-(((2′-fluoro-2-(1-fluoro-2,2-dimethylbutyl)-5′-methoxybiphenyl-4-yl)oxy)methyl)phenyl)propanoic acid] |
| 129 | – | CCC(C)(C)C(O)c1cc(OCc2cccc(C(CC(=O)O)C3CC3)c2)ccc1-c1cc(OC)ccc1F (stereo not drawn) [Example 108, 3-cyclopropyl-3-(3-(((2′-fluoro-2-(1-hydroxy-2,2-dimethylbutyl)-5′-methoxybiphenyl-4-yl)oxy)methyl)phenyl)propanoic acid] |
| 119 | – | CCC(C)(C)C(OC)c1cc(OCc2cccc(C(CC(=O)O)C3CC3)c2)ccc1-c1cc(OC)ccc1F (stereo not drawn) [Example 109, 3-cyclopropyl-3-(3-(((2′-fluoro-5′-methoxy-2-(1-methoxy-2,2-dimethylbutyl)biphenyl-4-yl)oxy)methyl)phenyl)propanoic acid] |
| 94 | – | CCC(C)(C)C(OCCOC)c1cc(OCc2cccc(C(CC(=O)O)C3CC3)c2)ccc1-c1cc(OC)ccc1F (stereo not drawn) [Example 110, 3-cyclopropyl-3-(3-(((2′-fluoro-5′-methoxy-2-(1-(2-methoxyethoxy)-2,2-dimethylbutyl)biphenyl-4-yl)oxy)methyl)phenyl)propanoic acid] |

More lines, now with the values behind:

| Compound | activation at 1 µM [%] | Human GPR40 agonist activity (increase in intracellular Ca2+ concentration) [%] |
| --- | --- | --- |
| CCOC(=O)CC(CC(=O)O)c1cccc(COc2ccc(-c3cc(OC)ccc3F)c(CC(C)(C)C)c2)c1 (stereo not drawn) [Example 81, 5-ethoxy-3-(3-(((2′-fluoro-5′-methoxy-2-neopentyl-[1,1′-biphenyl]-4-yl)oxy)methyl)phenyl)-5-oxopentanoic acid] | 134 | – |
| COc1ccc(F)c(-c2ccc(OCc3cccc(C(CC(=O)O)CC(=O)O)c3)cc2CC(C)(C)C)c1 [Example 82, 3-(3-(((2′-fluoro-5′-methoxy-2-neopentyl-[1,1′-biphenyl]-4-yl)oxy)methyl)phenyl)pentanedioic acid] | 5 | – |
| COc1ccc(F)c(-c2ccc(OCc3cccc(C(CC(N)=O)CC(=O)O)c3)cc2CC(C)(C)C)c1 (stereo not drawn) [Example 83, 5-amino-3-(3-(((2′-fluoro-5′-methoxy-2-neopentyl-[1,1′-biphenyl]-4-yl)oxy)methyl)phenyl)-5-oxopentanoic acid] | 34 | – |
| COc1ccc(F)c(-c2ccc(OCc3cccc(C(CC(=O)O)C(C)(C)C#N)c3)cc2CC(C)(C)C)c1 (stereo not drawn) [Example 84, 4-cyano-3-(3-(((2′-fluoro-5′-methoxy-2-neopentyl-[1,1′-biphenyl]-4-yl)oxy)methyl)phenyl)-4-methylpentanoic acid] | 90 | – |
| COc1ccc(F)c(-c2ccc(OCc3cccc(C(CC(=O)O)C(F)(F)C(F)(F)F)c3)cc2CC(C)(C)C)c1 (stereo not drawn) [Example 85, 4,4,5,5,5-pentafluoro-3-(3-(((2′-fluoro-5′-methoxy-2-neopentyl-[1,1′-biphenyl]-4-yl)oxy)methyl)phenyl)pentanoic acid] | 96 | – |
| COc1ccc(F)c(-c2ccc(OCc3cccc(C(CC(=O)O)C(C)(F)F)c3)cc2CC(C)(C)C)c1 (stereo not drawn) [Example 86, 4,4-difluoro-3-(3-(((2′-fluoro-5′-methoxy-2-neopentyl-[1,1′-biphenyl]-4-yl)oxy)methyl)phenyl)pentanoic acid] | 95 | – |
| COc1ccc(F)c(-c2ccc(OCc3cccc(C(CC(=O)O)C4CC4C#N)c3)cc2CC(C)(C)C)c1 (stereo not drawn) [Example 87, 3-(2-cyanocyclopropyl)-3-(3-(((2′-fluoro-5′-methoxy-2-neopentyl-[1,1′-biphenyl]-4-yl)oxy)methyl)phenyl)propanoic acid] | 98 | – |
| COc1ccc(F)c(-c2ccc(OCc3cccc(C(CC(=O)O)C4CC4C#N)c3)cc2CC(C)(C)C)c1 (stereo not drawn) [Example 88, 3-(2-cyanocyclopropyl)-3-(3-(((2′-fluoro-5′-methoxy-2-neopentyl-[1,1′-biphenyl]-4-yl)oxy)methyl)phenyl)propanoic acid] | – | 112 |
| COc1ccc(F)c(-c2ccc(OCc3cccc(C(CCCC#N)CC(=O)O)c3)cc2CC(C)(C)C)c1 (stereo not drawn) [Example 89, 6-cyano-3-(3-(((2′-fluoro-5′-methoxy-2-neopentyl-[1,1′-biphenyl]-4-yl)oxy)methyl)phenyl)hexanoic acid] | 94 | – |
| COc1ccc(F)c(-c2ccc(OCc3cccc(C(CC(=O)O)C4CC4C#N)c3)cc2CC(C)(C)C)c1 (stereo not drawn) [Example 90, 3-(2-cyanocyclopropyl)-3-(3-(((2′-fluoro-5′-methoxy-2-neopentyl-[1,1′-biphenyl]-4-yl)oxy)methyl)phenyl)propanoic acid] | – | 107 |
| COc1ccc(F)c(-c2ccc(OCc3cccc(C(CC(=O)O)C4CC4C#N)c3)cc2CC(C)(C)C)c1 (stereo not drawn) [Example 91, 3-(2-cyanocyclopropyl)-3-(3-(((2′-fluoro-5′-methoxy-2-neopentyl-[1,1′-biphenyl]-4-yl)oxy)methyl)phenyl)propanoic acid] | – | 97 |
| COc1ccc(F)c(-c2ccc(OCc3cccc(C(CC(=O)O)C4CC4)c3)cc2CCC(C)(C)OC)c1 (stereo not drawn) [Example 92, 3-cyclopropyl-3-(3-(((2′-fluoro-5′-methoxy-2-(3-methoxy-3-methylbutyl)biphenyl-4-yl)oxy)methyl)phenyl)propanoic acid] | 113 | – |
| COc1ccc(F)c(-c2ccc(OCc3cccc(C(CC(=O)O)C4CC4)c3)cc2CCC(C)(C)C)c1 (stereo not drawn) [Example 93, 3-cyclopropyl-3-(3-(((2-(3,3-dimethylbutyl)-2′-fluoro-5′-methoxybiphenyl-4-yl)oxy)methyl)phenyl)propanoic acid] | 106 | – |
| COc1ccc(F)c(-c2ccc(OCc3cccc(C(CC(=O)O)C4CC4)c3)cc2C(F)CC(C)(C)C)c1 (stereo not drawn) [Example 94, 3-cyclopropyl-3-(3-(((2′-fluoro-2-(1-fluoro-3,3-dimethylbutyl)-5′-methoxybiphenyl-4-yl)oxy)methyl)phenyl)propanoic acid] | 110 | – |
| COc1ccc(F)c(-c2ccc(OCc3cccc(C(CC(=O)O)C4CC4)c3)cc2C(O)C(C)(C)C)c1 (stereo not drawn) [Example 95] | 107 | – |
| COc1ccc(F)c(-c2ccc(OCc3cccc(C(CC(=O)O)C4CC4)c3)cc2C2CC(C)(C)OC(C)(C)C2)c1 (stereo not drawn) [Example 96, 3-cyclopropyl-3-(3-(((2′-fluoro-5′-methoxy-2-(2,2,6,6-tetramethyltetrahydro-2H-pyran-4-yl)biphenyl-4-yl)oxy)methyl)phenyl)propanoic acid] | 140 | – |
| COc1ccc(F)c(-c2ccc(OCc3cccc(C(CC(=O)O)C4CC4)c3)cc2CC2(C)CCCC2)c1 (stereo not drawn) [Example 97, 3-cyclopropyl-3-(3-(((2′-fluoro-5′-methoxy-2-((1-methylcyclopentyl)methyl)biphenyl-4-yl)oxy)methyl)phenyl)propanoic acid] | 118 | – |

From patent US9382188B2, “Aromatic ring compound” (TAKEDA PHARMACEUTICAL COMPANY LIMITED, priority 2012, dated 2016)
